Earlier results as cited in patent US20110092597A1, “METHOD FOR TREATING HERPES VIRUS INFECTION” (priority 2009, published 2011).

Legend:
[1] = not given; remark: listed apart in the source

Structure (SMILES) | Solubility in water | Bioavailability [1]
O=C(O)Cc1ccccc1Nc1c(Cl)cccc1Cl [Diclofenac, 2-(2,6-dichloro-anilino)-phenyl-acetic acid] | relatively low | 
Nc1nc2c(ncn2COCCO)c(=O)[nH]1 [acyclovir, acycloguanosine] | poorly soluble | low
